From article PMC4710522, “A Novel Triazolopyridine-Based Spleen Tyrosine Kinase Inhibitor That Arrests Joint Inflammation” (PLoS ONE, 2016)
Read-outs that look alike come from different tables or passages of the source.

Legend:
Assay in all cases: SelectScreen kinase assay
Assay type in all cases: biochemical
PDGFR-alpha_V561D_h = target: T1, PDGFR-alpha_V561D_h (Homo sapiens, UniProt P16234, V561D); conditions: KM ATP, read-out: % control
T1 construct: purchased Life Technologies (Invitrogen) SelectScreen, Z'-LYTE / Adapta
Procedure, shortened: (§1)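 Each enzyme is assayed by Z'-Lyte or Adapta with the compound at a constant 3 µM. ATP is used at that enzyme's KM or at 10 or 100 µM. Activity is expressed relative to DMSO-only controls.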

CLK1_h = target: T2, CLK1_h (Homo sapiens, UniProt P49759); conditions: KM ATP, read-out: % control
T2 construct: purchased Life Technologies (Invitrogen) SelectScreen, Z'-LYTE / Adapta
Procedure, shortened: as §1

PDK1_h = target: T3, PDK1_h (Homo sapiens, UniProt O15530); conditions: read-out: % control
T3 construct: purchased Life Technologies (Invitrogen) SelectScreen, Z'-LYTE / Adapta
T3 sequence (O15530 whole entry): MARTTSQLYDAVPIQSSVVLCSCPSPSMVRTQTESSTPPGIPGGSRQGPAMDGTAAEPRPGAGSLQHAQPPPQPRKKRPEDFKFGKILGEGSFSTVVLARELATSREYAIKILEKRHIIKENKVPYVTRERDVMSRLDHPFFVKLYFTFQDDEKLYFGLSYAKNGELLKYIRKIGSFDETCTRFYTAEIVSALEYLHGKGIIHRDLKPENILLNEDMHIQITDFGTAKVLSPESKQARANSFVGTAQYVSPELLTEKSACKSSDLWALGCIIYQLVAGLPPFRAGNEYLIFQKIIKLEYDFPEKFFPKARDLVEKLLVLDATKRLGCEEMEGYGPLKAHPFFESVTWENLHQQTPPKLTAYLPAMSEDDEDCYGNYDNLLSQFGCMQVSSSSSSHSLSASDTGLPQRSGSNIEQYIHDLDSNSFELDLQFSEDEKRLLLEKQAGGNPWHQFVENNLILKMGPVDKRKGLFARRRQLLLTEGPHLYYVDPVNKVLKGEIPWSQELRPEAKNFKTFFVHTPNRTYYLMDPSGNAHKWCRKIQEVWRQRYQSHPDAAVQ
Procedure, shortened: as §1

LYN-B_h = target: T4, LYN-B_h (Homo sapiens, UniProt P07948); conditions: KM ATP, read-out: % control
T4 construct: purchased Life Technologies (Invitrogen) SelectScreen, Z'-LYTE / Adapta
Procedure, shortened: as §1

CSK_h = target: T5, CSK_h (Homo sapiens, UniProt P41240); conditions: KM ATP, read-out: % control
T5 construct: purchased Life Technologies (Invitrogen) SelectScreen, Z'-LYTE / Adapta
Procedure, shortened: as §1

PKD3_h = target: T6, PKD3_h (Homo sapiens, UniProt O94806); conditions: KM ATP, read-out: % control
T6 construct: purchased Life Technologies (Invitrogen) SelectScreen, Z'-LYTE / Adapta
Procedure, shortened: as §1

IGF-1R_h = target: T7, IGF-1R_h (Homo sapiens, UniProt P08069); conditions: KM ATP, read-out: % control
T7 construct: purchased Life Technologies (Invitrogen) SelectScreen, Z'-LYTE / Adapta
Procedure, shortened: as §1

MELK_h = target: T8, MELK_h (Homo sapiens, UniProt Q14680); conditions: KM ATP, read-out: % control
T8 construct: purchased Life Technologies (Invitrogen) SelectScreen, Z'-LYTE / Adapta
Procedure, shortened: as §1

Aurora-C_h = target: T9, Aurora-C_h (Homo sapiens, UniProt Q9UQB9); conditions: KM ATP, read-out: % control
T9 construct: purchased Life Technologies (Invitrogen) SelectScreen, Z'-LYTE / Adapta
Procedure, shortened: as §1

Abl_Y253F_h = target: T10, Abl_Y253F_h (Homo sapiens, UniProt P00519, Y253F); conditions: KM ATP, read-out: % control
T10 construct: purchased Life Technologies (Invitrogen) SelectScreen, Z'-LYTE / Adapta
Procedure, shortened: as §1

FGFR3_h = target: T11, FGFR3_h (Homo sapiens, UniProt P22607); conditions: KM ATP, read-out: % control
T11 construct: purchased Life Technologies (Invitrogen) SelectScreen, Z'-LYTE / Adapta
T11 sequence (P22607 23-806): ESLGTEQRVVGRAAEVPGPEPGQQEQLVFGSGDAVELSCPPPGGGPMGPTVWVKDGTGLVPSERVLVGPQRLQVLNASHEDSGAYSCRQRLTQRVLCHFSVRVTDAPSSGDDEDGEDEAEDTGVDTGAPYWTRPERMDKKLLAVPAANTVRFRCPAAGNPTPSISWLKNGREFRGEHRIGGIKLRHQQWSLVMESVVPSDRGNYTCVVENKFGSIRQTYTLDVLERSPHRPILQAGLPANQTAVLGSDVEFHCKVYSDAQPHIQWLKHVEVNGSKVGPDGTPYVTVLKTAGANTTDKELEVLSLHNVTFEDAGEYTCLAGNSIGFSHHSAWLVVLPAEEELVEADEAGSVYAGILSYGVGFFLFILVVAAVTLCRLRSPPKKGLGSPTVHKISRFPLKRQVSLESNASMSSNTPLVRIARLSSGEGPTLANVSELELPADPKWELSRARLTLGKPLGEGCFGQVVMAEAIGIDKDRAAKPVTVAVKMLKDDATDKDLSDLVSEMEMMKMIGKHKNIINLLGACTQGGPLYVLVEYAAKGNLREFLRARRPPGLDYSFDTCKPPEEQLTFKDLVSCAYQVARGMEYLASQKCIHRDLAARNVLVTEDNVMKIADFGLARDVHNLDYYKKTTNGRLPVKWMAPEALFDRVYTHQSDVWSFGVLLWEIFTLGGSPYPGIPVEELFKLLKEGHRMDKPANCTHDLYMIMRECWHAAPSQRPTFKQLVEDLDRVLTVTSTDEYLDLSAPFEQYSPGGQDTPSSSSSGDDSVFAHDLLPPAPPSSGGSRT
Procedure, shortened: as §1

FGFR3_K650E_h = target: T12, FGFR3_K650E_h (Homo sapiens, UniProt P22607, K650E); conditions: KM ATP, read-out: % control
T12 construct: purchased Life Technologies (Invitrogen) SelectScreen, Z'-LYTE / Adapta
T12 sequence (P22607 23-806 K650E): as the sequence (P22607 23-806) above, with K628E counted along it
Procedure, shortened: as §1

CK2_h = target: T13, CK2_h (Homo sapiens, UniProt P68400); conditions: KM ATP, read-out: % control
T13 construct: purchased Life Technologies (Invitrogen) SelectScreen, Z'-LYTE / Adapta
Procedure, shortened: as §1

TAO1_h = target: T14, TAO1_h (Homo sapiens, UniProt Q9UL54); conditions: KM ATP, read-out: % control
T14 construct: purchased Life Technologies (Invitrogen) SelectScreen, Z'-LYTE / Adapta
Procedure, shortened: as §1

ErbB4_h = target: T15, ErbB4_h (Homo sapiens, UniProt Q15303); conditions: KM ATP, read-out: % control
T15 construct: purchased Life Technologies (Invitrogen) SelectScreen, Z'-LYTE / Adapta
T15 sequence (Q15303 26-1308): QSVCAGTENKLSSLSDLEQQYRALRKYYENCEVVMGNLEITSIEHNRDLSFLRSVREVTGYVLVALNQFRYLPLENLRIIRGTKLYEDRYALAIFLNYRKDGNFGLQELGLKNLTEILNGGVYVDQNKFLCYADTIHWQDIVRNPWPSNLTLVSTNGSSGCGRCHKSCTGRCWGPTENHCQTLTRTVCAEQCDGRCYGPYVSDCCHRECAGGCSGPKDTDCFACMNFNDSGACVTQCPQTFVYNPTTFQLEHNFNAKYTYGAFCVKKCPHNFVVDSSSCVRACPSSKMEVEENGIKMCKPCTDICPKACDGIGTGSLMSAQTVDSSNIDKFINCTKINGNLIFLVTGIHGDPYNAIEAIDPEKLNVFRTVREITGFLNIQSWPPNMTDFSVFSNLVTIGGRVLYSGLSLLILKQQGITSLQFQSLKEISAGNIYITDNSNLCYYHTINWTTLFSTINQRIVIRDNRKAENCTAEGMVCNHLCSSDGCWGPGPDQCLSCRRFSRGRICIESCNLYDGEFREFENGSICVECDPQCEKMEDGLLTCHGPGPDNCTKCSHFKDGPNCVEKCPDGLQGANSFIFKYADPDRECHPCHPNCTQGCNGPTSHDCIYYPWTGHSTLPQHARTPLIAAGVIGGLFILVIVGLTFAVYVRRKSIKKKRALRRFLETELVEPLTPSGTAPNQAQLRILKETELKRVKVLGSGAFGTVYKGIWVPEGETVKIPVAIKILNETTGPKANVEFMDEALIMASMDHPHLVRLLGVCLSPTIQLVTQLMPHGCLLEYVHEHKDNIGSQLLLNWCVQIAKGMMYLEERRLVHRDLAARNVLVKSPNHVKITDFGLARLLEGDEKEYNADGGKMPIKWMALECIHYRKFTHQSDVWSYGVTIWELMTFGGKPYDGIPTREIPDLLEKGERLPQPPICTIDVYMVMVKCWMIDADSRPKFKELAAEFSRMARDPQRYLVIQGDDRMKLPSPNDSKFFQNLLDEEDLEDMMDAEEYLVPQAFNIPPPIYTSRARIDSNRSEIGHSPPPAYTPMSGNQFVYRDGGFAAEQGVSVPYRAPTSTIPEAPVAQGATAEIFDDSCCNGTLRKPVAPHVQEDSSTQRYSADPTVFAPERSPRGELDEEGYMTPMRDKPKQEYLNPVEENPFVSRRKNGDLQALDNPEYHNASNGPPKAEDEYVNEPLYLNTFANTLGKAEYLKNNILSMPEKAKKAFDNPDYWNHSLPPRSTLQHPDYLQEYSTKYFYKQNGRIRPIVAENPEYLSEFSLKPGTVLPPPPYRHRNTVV
Procedure, shortened: as §1

EphA5_h = target: T16, EphA5_h (Homo sapiens, UniProt P54756); conditions: KM ATP, read-out: % control
T16 construct: purchased Life Technologies (Invitrogen) SelectScreen, Z'-LYTE / Adapta
Procedure, shortened: as §1

GSK3-alpha_h = target: T17, GSK3-alpha_h (Homo sapiens, UniProt P49840); conditions: KM ATP, read-out: % control
T17 construct: purchased Life Technologies (Invitrogen) SelectScreen, Z'-LYTE / Adapta
Procedure, shortened: as §1

Itk_h = target: T18, Itk_h (Homo sapiens, UniProt Q08881); conditions: KM ATP, read-out: % control
T18 construct: purchased Life Technologies (Invitrogen) SelectScreen, Z'-LYTE / Adapta
T18 sequence (Q08881 whole entry): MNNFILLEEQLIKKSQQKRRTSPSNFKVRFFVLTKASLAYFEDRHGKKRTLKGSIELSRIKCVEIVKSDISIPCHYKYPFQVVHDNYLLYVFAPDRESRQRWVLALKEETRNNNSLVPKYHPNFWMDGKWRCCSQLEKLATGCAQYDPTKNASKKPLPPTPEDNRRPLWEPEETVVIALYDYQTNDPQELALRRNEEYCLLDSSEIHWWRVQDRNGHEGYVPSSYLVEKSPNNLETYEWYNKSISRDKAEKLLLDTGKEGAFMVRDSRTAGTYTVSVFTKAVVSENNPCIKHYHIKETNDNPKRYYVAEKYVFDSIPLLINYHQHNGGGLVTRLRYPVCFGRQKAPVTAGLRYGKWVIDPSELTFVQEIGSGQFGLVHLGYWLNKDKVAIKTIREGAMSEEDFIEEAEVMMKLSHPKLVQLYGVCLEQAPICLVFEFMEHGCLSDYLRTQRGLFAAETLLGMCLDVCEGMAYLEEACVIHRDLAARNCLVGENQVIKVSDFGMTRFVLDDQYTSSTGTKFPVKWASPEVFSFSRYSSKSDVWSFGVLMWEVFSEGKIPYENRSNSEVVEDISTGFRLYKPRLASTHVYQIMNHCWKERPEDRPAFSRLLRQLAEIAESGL
Procedure, shortened: as §1

Plk2_h = target: T19, Plk2_h (Homo sapiens, UniProt Q9NYY3); conditions: KM ATP, read-out: % control
T19 construct: purchased Life Technologies (Invitrogen) SelectScreen, Z'-LYTE / Adapta
Procedure, shortened: as §1

PKB-beta_h = target: T20, PKB-beta_h (Homo sapiens, UniProt P31751); conditions: KM ATP, read-out: % control
T20 construct: purchased Life Technologies (Invitrogen) SelectScreen, Z'-LYTE / Adapta
Procedure, shortened: as §1

PKA_h = target: T21, PKA_h (Homo sapiens, UniProt P17612); conditions: KM ATP, read-out: % control
T21 construct: purchased Life Technologies (Invitrogen) SelectScreen, Z'-LYTE / Adapta
Procedure, shortened: as §1

MINK_h = target: T22, MINK_h (Homo sapiens, UniProt Q8N4C8); conditions: KM ATP, read-out: % control
T22 construct: purchased Life Technologies (Invitrogen) SelectScreen, Z'-LYTE / Adapta
Procedure, shortened: as §1

p70S6K_h = target: T23, p70S6K_h (Homo sapiens, UniProt P23443); conditions: KM ATP, read-out: % control
T23 construct: purchased Life Technologies (Invitrogen) SelectScreen, Z'-LYTE / Adapta
Procedure, shortened: as §1

TrkC_h = target: T24, TrkC_h (Homo sapiens, UniProt Q16288); conditions: KM ATP, read-out: % control
T24 construct: purchased Life Technologies (Invitrogen) SelectScreen, Z'-LYTE / Adapta
Procedure, shortened: as §1

BrSK1_h = target: T25, BrSK1_h (Homo sapiens, UniProt Q8TDC3); conditions: KM ATP, read-out: % control
T25 construct: purchased Life Technologies (Invitrogen) SelectScreen, Z'-LYTE / Adapta
Procedure, shortened: as §1

LRRK2_h = target: T26, LRRK2_h (Homo sapiens, UniProt Q5S007); conditions: KM ATP, read-out: % control
T26 construct: purchased Life Technologies (Invitrogen) SelectScreen, Z'-LYTE / Adapta
Procedure, shortened: as §1

SRPK1_h = target: T27, SRPK1_h (Homo sapiens, UniProt Q96SB4); conditions: KM ATP, read-out: % control
T27 construct: purchased Life Technologies (Invitrogen) SelectScreen, Z'-LYTE / Adapta
Procedure, shortened: as §1

CaMKIV_h = target: T28, CaMKIV_h (Homo sapiens, UniProt Q16566); conditions: KM ATP, read-out: % control
T28 construct: purchased Life Technologies (Invitrogen) SelectScreen, Z'-LYTE / Adapta
T28 sequence (Q16566 whole entry): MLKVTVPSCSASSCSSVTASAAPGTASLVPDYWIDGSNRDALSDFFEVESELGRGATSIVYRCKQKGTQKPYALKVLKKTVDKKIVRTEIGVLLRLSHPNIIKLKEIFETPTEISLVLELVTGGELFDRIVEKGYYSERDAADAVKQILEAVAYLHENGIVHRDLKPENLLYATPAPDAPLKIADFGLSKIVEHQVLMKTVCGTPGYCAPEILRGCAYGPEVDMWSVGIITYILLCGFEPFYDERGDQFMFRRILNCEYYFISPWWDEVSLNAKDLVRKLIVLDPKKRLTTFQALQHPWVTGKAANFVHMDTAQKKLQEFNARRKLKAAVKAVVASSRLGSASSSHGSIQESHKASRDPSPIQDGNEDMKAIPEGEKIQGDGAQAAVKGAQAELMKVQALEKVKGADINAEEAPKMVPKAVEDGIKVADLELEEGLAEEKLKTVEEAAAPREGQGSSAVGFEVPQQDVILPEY
Procedure, shortened: as §1

GRK4_h = target: T29, GRK4_h (Homo sapiens, UniProt P32298); conditions: KM ATP, read-out: % control
T29 construct: purchased Life Technologies (Invitrogen) SelectScreen, Z'-LYTE / Adapta
Procedure, shortened: as §1

ROCK-I_h = target: T30, ROCK-I_h (Homo sapiens, UniProt Q13464); conditions: KM ATP, read-out: % control
T30 construct: purchased Life Technologies (Invitrogen) SelectScreen, Z'-LYTE / Adapta
Procedure, shortened: as §1

Bmx_h = target: T31, Bmx_h (Homo sapiens, UniProt P51813); conditions: KM ATP, read-out: % control
T31 construct: purchased Life Technologies (Invitrogen) SelectScreen, Z'-LYTE / Adapta
Procedure, shortened: as §1

Ret_h = Ret_h (Homo sapiens, UniProt P07949)
Ret_h, sequence (P07949 29-1114): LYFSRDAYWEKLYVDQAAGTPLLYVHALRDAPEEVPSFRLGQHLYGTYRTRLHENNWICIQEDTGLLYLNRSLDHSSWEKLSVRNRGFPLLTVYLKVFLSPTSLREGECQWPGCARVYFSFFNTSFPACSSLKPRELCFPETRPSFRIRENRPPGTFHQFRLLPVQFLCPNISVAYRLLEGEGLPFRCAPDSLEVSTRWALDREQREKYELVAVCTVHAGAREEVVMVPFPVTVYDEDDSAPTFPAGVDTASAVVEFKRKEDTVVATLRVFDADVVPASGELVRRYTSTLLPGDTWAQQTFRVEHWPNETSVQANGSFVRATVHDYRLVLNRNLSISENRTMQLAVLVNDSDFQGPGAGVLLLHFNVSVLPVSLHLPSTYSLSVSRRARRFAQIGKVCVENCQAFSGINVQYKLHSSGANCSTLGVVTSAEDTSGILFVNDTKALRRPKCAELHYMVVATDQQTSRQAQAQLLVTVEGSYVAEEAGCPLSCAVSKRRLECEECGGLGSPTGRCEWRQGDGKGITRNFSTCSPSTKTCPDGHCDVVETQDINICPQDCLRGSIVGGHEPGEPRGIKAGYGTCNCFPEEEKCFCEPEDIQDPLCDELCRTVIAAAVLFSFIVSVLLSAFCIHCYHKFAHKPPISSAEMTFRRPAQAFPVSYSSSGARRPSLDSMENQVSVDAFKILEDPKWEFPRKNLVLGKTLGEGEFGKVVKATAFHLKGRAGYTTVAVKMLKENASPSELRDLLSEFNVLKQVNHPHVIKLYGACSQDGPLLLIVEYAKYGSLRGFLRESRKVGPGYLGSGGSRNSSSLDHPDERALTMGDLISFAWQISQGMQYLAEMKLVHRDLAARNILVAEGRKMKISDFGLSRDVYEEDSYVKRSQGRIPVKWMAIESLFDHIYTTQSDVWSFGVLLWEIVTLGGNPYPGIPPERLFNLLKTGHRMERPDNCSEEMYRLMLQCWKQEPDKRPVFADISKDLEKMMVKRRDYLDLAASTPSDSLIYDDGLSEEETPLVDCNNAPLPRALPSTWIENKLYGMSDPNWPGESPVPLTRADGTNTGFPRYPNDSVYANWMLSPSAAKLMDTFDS
Procedure, shortened: as §1

EGFR_T790M_h = target: T32, EGFR_T790M_h (Homo sapiens, UniProt P00533, T790M); conditions: KM ATP, read-out: % control
T32 construct: purchased Life Technologies (Invitrogen) SelectScreen, Z'-LYTE / Adapta
Procedure, shortened: as §1

STK25_h = target: T33, STK25_h (Homo sapiens, UniProt O00506); conditions: KM ATP, read-out: % control
T33 construct: purchased Life Technologies (Invitrogen) SelectScreen, Z'-LYTE / Adapta
Procedure, shortened: as §1

c1cc(CC2CCOCC2)n2nc(Nc3ccc4c(NC5CCOCC5)n[nH]c4c3)nc2c1 [CC-509, [3-(2H-3,4,5,6-tetrahydropyran-4-ylamino)(1H-indazol-6-yl)][5-(2H-3,4,5,6-tetrahydropyran-4-ylmethyl)(2H-1,2,4-triazolo[1,5-a]pyridin-2-yl)]amine]
remaining activity at 3 µM (PDGFR-alpha_V561D_h): 0% | remaining activity at 3 µM (CLK1_h): 82% | remaining activity at 3 µM (PDK1_h; 100 µM ATP): 78% | remaining activity at 3 µM (PDK1_h; KM ATP): 47% | remaining activity at 3 µM (LYN-B_h): 39% | remaining activity at 3 µM (CSK_h): 70% | remaining activity at 3 µM (PKD3_h): 37% | remaining activity at 3 µM (IGF-1R_h): 97% | remaining activity at 3 µM (MELK_h): 10% | remaining activity at 3 µM (Aurora-C_h): 18% | remaining activity at 3 µM (Abl_Y253F_h): 22% | remaining activity at 3 µM (FGFR3_h): 68% | remaining activity at 3 µM (FGFR3_K650E_h): 54% | remaining activity at 3 µM (CK2_h): 94% | remaining activity at 3 µM (TAO1_h): 96% | remaining activity at 3 µM (ErbB4_h): 91% | remaining activity at 3 µM (EphA5_h): 89% | remaining activity at 3 µM (GSK3-alpha_h): 91% | remaining activity at 3 µM (Itk_h): 91% | remaining activity at 3 µM (Plk2_h): 96% | remaining activity at 3 µM (PKB-beta_h): 98% | remaining activity at 3 µM (PKA_h): 93% | remaining activity at 3 µM (MINK_h): 55% | remaining activity at 3 µM (p70S6K_h): 89% | remaining activity at 3 µM (TrkC_h): 25% | remaining activity at 3 µM (BrSK1_h): 65% | remaining activity at 3 µM (LRRK2_h): 3% | remaining activity at 3 µM (SRPK1_h): 98% | remaining activity at 3 µM (CaMKIV_h): 100% | remaining activity at 3 µM (GRK4_h): 82% | remaining activity at 3 µM (ROCK-I_h): 70% | remaining activity at 3 µM (Bmx_h): 52% | remaining activity at 3 µM (Ret_h; 3 µM, KM ATP, read-out: % control): 13% | IC50 (Ret_h; 10-point dose-response, commercial vendor): 397 nM | remaining activity at 3 µM (EGFR_T790M_h): 54% | remaining activity at 3 µM (STK25_h): 97%
